We go through one molecule from patent publication EP0413544A2, “Purine derivatives, process for their preparation, pharmaceutical compositions and intermediates” (Beecham Group p.l.c., priority 1989, dated 1991).

Read-outs that look alike come from different tables or passages of the source.

A short description of the data set: Blood concentration of E1 after oral dosing of the compounds to mice (HPLC). It is filed as in vivo. To be noted: fasted female Balb/c mice, pooled blood of 3 mice. As for the experimental part: Compounds were administered as single doses of 0.2mmole/kg in 0.1ml of 1% carboxymethyl cellulose by oral gavage to female Balb/c mice weighing 20g. Food was withheld from the mice for 18 hours prior to the start of the experiment. Blood was collected by cardiac puncture using heparinised syringes 15, 60 and 180 mins after dosing. Equal volumes (0.2ml) from 3 mice were pooled at each time point and 0.6ml of ice-cold ethanol was added. Following chilling at -20°C and centrifugation, 0.5ml of supernatant was dried under reduced pressure. The sample was then reconstituted with 0.5ml of 0.4M NH₄OAc (pH 6.0) and analysed by HPLC.

`Nc1nc(O)c2ncn(OCCCO)c2n1` [Example E1, 9-(3-hydroxyprop-1-oxy)guanine]: the concentration reads like this: (Expt. 1, 15 min after single oral gavage dose of 0.2mmole/kg in 1% carboxymethyl cellulose, read-out: 9-(3-Hydroxypropoxy)guanine (E1) conc. (µM) in blood at time (min) after dosing: 15) 5.2 µM; (Expt. 1, 60 min after single oral gavage dose of 0.2mmole/kg in 1% carboxymethyl cellulose, read-out: 9-(3-Hydroxypropoxy)guanine (E1) conc. (µM) in blood at time (min) after dosing: 60) 2 µM; (Expt. 2, 15 min after single oral gavage dose of 0.2mmole/kg in 1% carboxymethyl cellulose, read-out: 9-(3-Hydroxypropoxy)guanine (E1) conc. (µM) in blood at time (min) after dosing: 15) 11 µM. Where the note is “mouse, 200 umol/kg, Expt. 2, 60 min after single oral gavage dose of 0.2mmole/kg in 1% carboxymethyl cellulose, read-out: 9-(3-Hydroxypropoxy)guanine (E1) conc. (µM) in blood at time (min) after dosing: 60”, the concentration at 1 h came out at 3.3 µM.
